Assay results: patent US8372890B2, “Functional food containing sodium tricaffeoylaldarate” (Zenyaku Kogyo Kabushikikaisha, priority 2006, dated 2013)

Tests used:
[1] = test system: Lipid Peroxidation (brain homogenate auto-oxidation); assay: Brain homogenate auto-oxidation test (lipid peroxide production inhibition, thiobarbituric acid method); assay type: biochemical; conditions: for IC50: value in parentheses, read-out: Inhibitory Activities on Lipid Peroxidation IC50
From the text: [formula] Moreover, f: Purity of reference standard (%)/100 6) Brain Homogenate Auto-oxidation Test
Determined via a thiobarbituric acid method that was based on the method of Ohkawa, et al. (Reference Document 2)

[2] = 1,1-Diphenyl-2-picrylhydrazyl (DPPH) radical scavenging test; conditions: for EC50: value in parentheses, read-out: DPPH Radical Scavenging Activities EC50
From the text: 7) 1,1-Diphenyl-2-picrylhydrazyl (DPPH) Radical Scavenging Test
Determined based on the method of Blois, et al. (Reference Document 3)

maltase = assay: Glycosidase inhibitory activity test, maltase; assay type: biochemical
From the text: (§1) 8) Glycosidase Inhibitory Activity Test
(§2) Determined via a method whereby α-amylase, maltase, and sucrase inhibitory activities were all disclosed in the abovementioned report (Non-Patent Document 1).

sucrase = sucrase (Homo sapiens, UniProt P14410); assay: Glycosidase inhibitory activity test, sucrase; assay type: biochemical
Chain of sucrase (P14410 whole entry, species assumed): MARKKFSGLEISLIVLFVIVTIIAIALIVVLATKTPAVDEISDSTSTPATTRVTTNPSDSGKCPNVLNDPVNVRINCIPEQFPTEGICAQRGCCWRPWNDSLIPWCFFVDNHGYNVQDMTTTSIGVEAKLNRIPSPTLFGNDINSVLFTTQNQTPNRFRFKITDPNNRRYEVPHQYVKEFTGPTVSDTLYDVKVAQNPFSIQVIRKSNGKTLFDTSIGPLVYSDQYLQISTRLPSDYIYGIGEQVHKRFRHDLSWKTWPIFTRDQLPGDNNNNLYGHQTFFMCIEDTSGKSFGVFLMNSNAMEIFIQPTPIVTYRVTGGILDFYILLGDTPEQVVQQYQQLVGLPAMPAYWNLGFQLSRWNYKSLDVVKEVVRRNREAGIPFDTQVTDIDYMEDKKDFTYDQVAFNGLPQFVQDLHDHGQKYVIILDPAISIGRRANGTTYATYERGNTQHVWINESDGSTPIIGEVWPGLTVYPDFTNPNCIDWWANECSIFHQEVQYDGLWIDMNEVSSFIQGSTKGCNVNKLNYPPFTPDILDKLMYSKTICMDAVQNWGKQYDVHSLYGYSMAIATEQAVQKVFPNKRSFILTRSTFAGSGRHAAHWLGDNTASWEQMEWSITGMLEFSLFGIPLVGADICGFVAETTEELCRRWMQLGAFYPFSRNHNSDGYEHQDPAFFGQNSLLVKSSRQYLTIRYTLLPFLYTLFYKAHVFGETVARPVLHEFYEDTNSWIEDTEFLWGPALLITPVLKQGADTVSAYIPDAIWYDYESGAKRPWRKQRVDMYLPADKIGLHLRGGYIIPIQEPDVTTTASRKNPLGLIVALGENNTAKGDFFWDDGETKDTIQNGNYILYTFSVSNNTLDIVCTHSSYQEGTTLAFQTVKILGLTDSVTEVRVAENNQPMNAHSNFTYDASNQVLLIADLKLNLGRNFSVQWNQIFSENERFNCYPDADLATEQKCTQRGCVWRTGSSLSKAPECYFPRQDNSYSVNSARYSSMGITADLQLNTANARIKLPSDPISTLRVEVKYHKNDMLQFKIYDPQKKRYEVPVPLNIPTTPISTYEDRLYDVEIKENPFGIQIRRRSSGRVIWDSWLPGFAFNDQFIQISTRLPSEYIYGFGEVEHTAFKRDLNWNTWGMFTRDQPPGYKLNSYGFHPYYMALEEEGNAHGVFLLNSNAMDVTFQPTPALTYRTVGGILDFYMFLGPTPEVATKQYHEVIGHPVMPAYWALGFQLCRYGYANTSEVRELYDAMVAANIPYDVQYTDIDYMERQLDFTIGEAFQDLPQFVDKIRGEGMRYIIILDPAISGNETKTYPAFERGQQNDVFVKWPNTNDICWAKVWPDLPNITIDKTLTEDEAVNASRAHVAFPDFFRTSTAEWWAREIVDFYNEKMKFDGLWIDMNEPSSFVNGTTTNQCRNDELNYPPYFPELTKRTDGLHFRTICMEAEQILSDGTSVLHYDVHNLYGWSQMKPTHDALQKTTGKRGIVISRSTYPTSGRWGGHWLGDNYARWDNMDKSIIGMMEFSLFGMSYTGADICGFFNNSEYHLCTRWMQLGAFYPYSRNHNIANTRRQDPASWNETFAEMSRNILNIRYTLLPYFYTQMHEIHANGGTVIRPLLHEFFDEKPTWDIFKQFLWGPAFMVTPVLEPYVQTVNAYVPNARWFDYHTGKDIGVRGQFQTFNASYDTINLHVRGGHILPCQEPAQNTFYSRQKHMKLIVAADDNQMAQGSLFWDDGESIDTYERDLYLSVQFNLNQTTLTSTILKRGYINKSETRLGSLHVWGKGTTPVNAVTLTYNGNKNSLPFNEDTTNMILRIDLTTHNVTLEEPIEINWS
From the text: as §1, §2

[3] = test system: blood glucose level after maltose-loading; assay: Hyperglycemic inhibitory action after maltose-loading in rat; assay type: in vivo, SD (IGS) rat; conditions: for ΔAUC of blood glucose / ΔCmax of blood glucose: maltose 1 g/kg gavage
From the text: • 1) Test Substance: With regard to TCAA, Yacon hot water extract was passed through an HP-20 column chromatograph, then eluted with water, and finally eluted with 50% methanol to obtain a polyphenol fraction. This fraction was separated by being passed through a Sephadex LH-20, and eluted with 40% methanol/water, so that the total amount of TCAA contained therein was recovered during confirmation of TCAA with HPLC. Then, the rough TCAA fraction was passed through a HW-40 column chromatograph, separated with 40% methanol/water during confirmation of TCAA with HPLC in a similar manner, and components other than TCAA were removed. […] Moreover, the maltose employed was purchased from Wako Pure Chemical Industries, Ltd. • 2) Animals: One group of five SD (IGS) 7 week old male rats was employed. 2. Experimental Method • 1) Configuration of the Treatment Group • (1) Control Group (Maltose Only) • (2) Maltose+TCAA (600 mg/kg×2) • (3) Maltose+TCAA (300 mg/kg×2) • (4) Maltose+TCAA (150 mg/kg×2) • 2) Preparation of Test Substance
Maltose was weighed to an amount of 1.5 g, dissolved in 15 ml of distilled water, and administered by gavage at a dosage of 1 g/10 ml/kg. Then TCAA was administered in two doses, a first dosage in which it was administered in a maltose solution, and then a second dosage in which it was dissolved in distilled water, with both dosages being at ratios of 150 mg/10 ml, 300 mg/10 ml, and 600 mg/10 ml, respectively, and administration thereof by gavage at a dosage of 10 ml/kg.
After blood samples were collected from rats that fasted for 17 hours prior to administration of the test substance (0 time), the test substance was administered. Fifteen minutes later the second dosage was administered, with blood samples being taken soon thereafter (specifically, 15 minutes later), 30 minutes thereafter, 45 minutes thereafter, 60 minutes thereafter, 90 minutes thereafter, and 120 minutes thereafter, respectively, and then blood glucose levels being measured with a Glucocard (Aventis Pharma, Limited).
When measuring blood glucose levels at the times that each of the samples were collected, the change in blood glucose (A) was calculated by subtracting the blood glucose level prior to the administration (0 time) from the blood glucose levels after the administration of the test substance, and determining the maximum serum concentration (ΔCMAX) and area under the blood glucose curve (ΔAUC).
The blood glucose values obtained by the present experiment were averaged, the standard error of the mean was calculated, and a two-group comparison was made with the control group. The statistical test method was via the Bartlett method, with the variance of the measured values being statistically verified within a 95% confidence limit, and the Student's t-test only being conducted in cases of equal variance, to determine that p<0.05 was a statistically significant change.

α-amylase = assay: Glycosidase inhibitory activity test, amylase; assay type: biochemical
From the text: as §1, §2

[4] = TCAA 150 mg/kg × 2, mean ± SE, n = 5
[5] = TCAA 300 mg/kg × 2, mean ± SE, n = 5
[6] = comparative molar concentrations

Molecule | Inhibitory Activities on Lipid Peroxidation IC50 [1] [µg/mL] | IC50 [1] [µM] | DPPH Radical Scavenging Activities EC50 [2] [µg/mL] | EC50 [2] [nM] | also measured
O=C(/C=C/c1ccc(O)c(O)c1)O[C@@H]1C[C@](O)(C(=O)O)C[C@@H](OC(=O)/C=C/c2ccc(O)c(O)c2)[C@H]1O [3,5-DCQA] | 2.18 | 4.23 | 0.87 | 1690 | –
O=c1oc2c(O)c(O)cc3c(=O)oc4c(O)c(O)cc1c4c23 [ellagic acid] | 0.56 | 1.85 | 0.51 | 1690 | –
(±)-catechin | 13.69 | 47.2 | 1.56 | 5370 | –
O=C(/C=C/c1ccc(O)c(O)c1)O[C@H]1[C@H](O)C[C@](O)(C(=O)O)C[C@H]1OC(=O)/C=C/c1ccc(O)c(O)c1 [4,5-DCQA] | 3.38 | 6.55 | 0.89 | 1720 | –
O=C(O)/C=C/c1ccc(O)c(O)c1 [caffeic acid] | 9.97 | 55.3 | 4.39 | 24300 | –
2,3,5-tricaffeoylaltraric acid, or 2,4,5-tricaffeoylaltraric acid [TCAA] | 0.49 | 0.7 | 0.69 | 990 | maltase inhibitory activity IC50 (maltase; TCAA isolated in Example 1): 49 µg/mL; maltase inhibitory activity IC50 (maltase; TCAA test substance of Example 4, purity 91%): 61 µg/mL; maltase inhibitory activity compared to an acarbose control (maltase; fraction of acarbose activity): 1/19; sucrase inhibitory activity IC50 (sucrase): > 1000 µg/mL; blood glucose 90 minute values compared to control group ([3]; 600 mg/kg TCAA group): obvious increase; increase in blood glucose via maltose-loading at 15 minutes ([3]; each TCAA dosage group (150, 300, 600 mg/kg × 2) vs control, p<0.01): significantly inhibited; ΔAUC of blood glucose [3, 4]: 5834 ± 484 mg·min/dL; ΔCmax of blood glucose [3, 4]: 86 ± 9 mg/dL; ΔAUC of blood glucose [3, 5]: 5456 ± 249 mg·min/dL; ΔCmax of blood glucose [3, 5]: 84 ± 5 mg/dL; ΔAUC of blood glucose ([3]; TCAA 600 mg/kg × 2, mean ± SE, n = 5): 5495 ± 300 mg·min/dL; ΔCmax of blood glucose ([3]; TCAA 600 mg/kg × 2, mean ± SE, n = 5, p < 0.05 vs control): 73 ± 3 mg/dL; lipid peroxide production inhibitory activity, times greater than that of (±)-catechin [1, 6]: 68 times; lipid peroxide production inhibitory activity, times greater than that of ellagic acid [1, 6]: 2.5 times; amylase inhibitory activity IC50 (α-amylase): 420 µg/mL
Cc1c(C)c2c(c(C)c1O)CC[C@@](C)(CCC[C@H](C)CCC[C@H](C)CCCC(C)C)O2 [α-tocopherol] | 71.24 | 166 | 5.65 | 13100 | –
O=C(/C=C/c1ccc(O)c(O)c1)O[C@@H]1C[C@](O)(C(=O)O)C[C@@H](O)[C@H]1O [chlorogenic acid] | 13.21 | 37.3 | – | – | –
O=C(/C=C/c1ccc(O)c(O)c1)O[C@@H]1[C@H](O)C[C@@](O)(C(=O)O)C[C@H]1OC(=O)/C=C/c1ccc(O)c(O)c1 [3,4-DCQA, 3,4-dicaffeoylquinic acid] | 1.48 | 2.87 | 0.91 | 1760 | –
